Experiments:
Experiment in all cases: relative viability (nuclei count vs DMSO), 5 days (fraction); higher = more cells survive
NCI-H520 = system: NCI-H520
Procedure, shortened: (§1)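 Nuclei were stained with Hoechst during a one-step fixation (final 0.05% Triton X-100, 1% formaldehyde, 1 ug/ml Hoechst) carried out 5 days after dosing, then counted on 4× images. The cells, lung cancer lines in 1536-well plates, had been dosed by pin tool the day after seeding with one drug alone or a fixed anchor-drug dose plus five library-drug doses (not always all listed) in √10 steps. Relative viability is the nuclei count in treated wells divided by that in vehicle wells, and each value is the median of duplicate plates.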

A-427 = system: A-427
Procedure, shortened: as §1

H3255 = system: H3255
Procedure, shortened: as §1

NCI-H1915 = system: NCI-H1915
Procedure, shortened: as §1

LCLC-97TM1 = system: LCLC-97TM1
Procedure, shortened: as §1

NCI-H2087 = system: NCI-H2087
Procedure, shortened: as §1

NCI-H2023 = system: NCI-H2023
Procedure, shortened: as §1

PC-3 [JPC-3] = system: PC-3 [JPC-3]
Procedure, shortened: as §1

NCI-H661 = system: NCI-H661
Procedure, shortened: as §1

NCI-H460 = system: NCI-H460
Procedure, shortened: as §1

NCI-H650 = system: NCI-H650
Procedure, shortened: as §1

NCI-H1944 = system: NCI-H1944
Procedure, shortened: as §1

NCI-H1650 = system: NCI-H1650
Procedure, shortened: as §1

CAL-12T = system: CAL-12T
Procedure, shortened: as §1

LC-2-ad = system: LC-2-ad
Procedure, shortened: as §1

NCI-H727 = system: NCI-H727
Procedure, shortened: as §1

BEN = system: BEN
Procedure, shortened: as §1

201T = system: 201T
Procedure, shortened: as §1

NCI-H441 = system: NCI-H441
Procedure, shortened: as §1

NCI-H1651 = system: NCI-H1651
Procedure, shortened: as §1

NCI-H596 = system: NCI-H596
Procedure, shortened: as §1

Compound: COc1cc2nccc(Oc3ccc(NC(=O)Nc4cc(C)on4)c(Cl)c3)c2cc1OC [Tivozanib] + CC(=O)Nc1cccc(-n2c(=O)n(C3CC3)c(=O)c3c(Nc4ccc(I)cc4F)n(C)c(=O)c(C)c32)c1 [Trametinib] (partner 0.02 µM)
- relative viability (NCI-H520; first compound 0.005 µM): 0.658
- relative viability (NCI-H520; first compound 0.01581 µM): 0.771
- relative viability (NCI-H520; first compound 0.05 µM): 0.612
- relative viability (NCI-H520; first compound 0.1581 µM): 0.475
- relative viability (NCI-H520; first compound 0.5 µM): 0.646
- relative viability (A-427; first compound 0.005 µM): 0.696
- relative viability (A-427; first compound 0.01581 µM): 0.718
- relative viability (A-427; first compound 0.05 µM): 0.758
- relative viability (A-427; first compound 0.1581 µM): 0.67
- relative viability (A-427; first compound 0.5 µM): 0.686
- relative viability (H3255; first compound 0.005 µM): 0.531
- relative viability (H3255; first compound 0.01581 µM): 0.61
- relative viability (H3255; first compound 0.05 µM): 0.659
- relative viability (H3255; first compound 0.1581 µM): 0.608
- relative viability (H3255; first compound 0.5 µM): 0.59
- relative viability (NCI-H1915; first compound 0.005 µM): 0.318
- relative viability (NCI-H1915; first compound 0.01581 µM): 0.305
- relative viability (NCI-H1915; first compound 0.05 µM): 0.3
- relative viability (NCI-H1915; first compound 0.1581 µM): 0.273
- relative viability (NCI-H1915; first compound 0.5 µM): 0.304
- relative viability (LCLC-97TM1; first compound 0.005 µM): 0.15
- relative viability (LCLC-97TM1; first compound 0.01581 µM): 0.194
- relative viability (LCLC-97TM1; first compound 0.05 µM): 0.206
- relative viability (LCLC-97TM1; first compound 0.1581 µM): 0.165
- relative viability (LCLC-97TM1; first compound 0.5 µM): 0.273
- relative viability (NCI-H2087; first compound 0.005 µM): 0.147
- relative viability (NCI-H2087; first compound 0.01581 µM): 0.211
- relative viability (NCI-H2087; first compound 0.05 µM): 0.193
- relative viability (NCI-H2087; first compound 0.1581 µM): 0.166
- relative viability (NCI-H2087; first compound 0.5 µM): 0.243
- relative viability (NCI-H2023; first compound 0.005 µM): 0.526
- relative viability (NCI-H2023; first compound 0.01581 µM): 0.603
- relative viability (NCI-H2023; first compound 0.05 µM): 0.606
- relative viability (NCI-H2023; first compound 0.1581 µM): 0.61
- relative viability (NCI-H2023; first compound 0.5 µM): 0.498
- relative viability (PC-3 [JPC-3]; first compound 0.01581 µM): 0.686
- relative viability (PC-3 [JPC-3]; first compound 0.05 µM): 0.807
- relative viability (PC-3 [JPC-3]; first compound 0.1581 µM): 0.674
- relative viability (PC-3 [JPC-3]; first compound 0.5 µM): 0.811
- relative viability (NCI-H661; first compound 0.005 µM): 0.588
- relative viability (NCI-H661; first compound 0.01581 µM): 0.562
- relative viability (NCI-H661; first compound 0.05 µM): 0.618
- relative viability (NCI-H661; first compound 0.1581 µM): 0.522
- relative viability (NCI-H661; first compound 0.5 µM): 0.641
- relative viability (NCI-H460; first compound 0.005 µM): 0.13
- relative viability (NCI-H460; first compound 0.01581 µM): 0.192
- relative viability (NCI-H460; first compound 0.05 µM): 0.254
- relative viability (NCI-H460; first compound 0.1581 µM): 0.13
- relative viability (NCI-H460; first compound 0.5 µM): 0.236
- relative viability (NCI-H650; first compound 0.005 µM): 0.942
- relative viability (NCI-H650; first compound 0.01581 µM): 1.05
- relative viability (NCI-H650; first compound 0.05 µM): 1.05
- relative viability (NCI-H650; first compound 0.1581 µM): 0.97
- relative viability (NCI-H650; first compound 0.5 µM): 0.909
- relative viability (NCI-H1944; first compound 0.005 µM): 0.344
- relative viability (NCI-H1944; first compound 0.01581 µM): 0.453
- relative viability (NCI-H1944; first compound 0.05 µM): 0.399
- relative viability (NCI-H1944; first compound 0.1581 µM): 0.423
- relative viability (NCI-H1944; first compound 0.5 µM): 0.455
- relative viability (NCI-H1650; first compound 0.005 µM): 0.592
- relative viability (NCI-H1650; first compound 0.01581 µM): 0.582
- relative viability (NCI-H1650; first compound 0.05 µM): 0.584
- relative viability (NCI-H1650; first compound 0.1581 µM): 0.545
- relative viability (NCI-H1650; first compound 0.5 µM): 0.547
- relative viability (CAL-12T; first compound 0.005 µM): 0.297
- relative viability (CAL-12T; first compound 0.01581 µM): 0.356
- relative viability (CAL-12T; first compound 0.05 µM): 0.414
- relative viability (CAL-12T; first compound 0.1581 µM): 0.235
- relative viability (CAL-12T; first compound 0.5 µM): 0.408
- relative viability (LC-2-ad; first compound 0.005 µM): 0.91
- relative viability (LC-2-ad; first compound 0.01581 µM): 0.849
- relative viability (LC-2-ad; first compound 0.05 µM): 0.888
- relative viability (LC-2-ad; first compound 0.1581 µM): 0.601
- relative viability (LC-2-ad; first compound 0.5 µM): 0.497
- relative viability (NCI-H727; first compound 0.005 µM): 0.385
- relative viability (NCI-H727; first compound 0.01581 µM): 0.419
- relative viability (NCI-H727; first compound 0.05 µM): 0.366
- relative viability (NCI-H727; first compound 0.1581 µM): 0.38
- relative viability (NCI-H727; first compound 0.5 µM): 0.398
- relative viability (BEN; first compound 0.005 µM): 1.13
- relative viability (BEN; first compound 0.01581 µM): 1.1
- relative viability (BEN; first compound 0.05 µM): 0.961
- relative viability (BEN; first compound 0.1581 µM): 0.903
- relative viability (BEN; first compound 0.5 µM): 1
- relative viability (201T; first compound 0.005 µM): 0.691
- relative viability (201T; first compound 0.01581 µM): 0.759
- relative viability (201T; first compound 0.05 µM): 0.681
- relative viability (201T; first compound 0.1581 µM): 0.717
- relative viability (201T; first compound 0.5 µM): 0.784
- relative viability (NCI-H441; first compound 0.005 µM): 0.405
- relative viability (NCI-H441; first compound 0.01581 µM): 0.489
- relative viability (NCI-H441; first compound 0.05 µM): 0.551
- relative viability (NCI-H441; first compound 0.1581 µM): 0.367
- relative viability (NCI-H441; first compound 0.5 µM): 0.433
- relative viability (NCI-H1651; first compound 0.005 µM): 0.816
- relative viability (NCI-H1651; first compound 0.01581 µM): 0.808
- relative viability (NCI-H1651; first compound 0.05 µM): 0.821
- relative viability (NCI-H1651; first compound 0.1581 µM): 0.866
- relative viability (NCI-H1651; first compound 0.5 µM): 0.828
- relative viability (NCI-H596; first compound 0.005 µM): 0.653
- relative viability (NCI-H596; first compound 0.01581 µM): 0.834
- relative viability (NCI-H596; first compound 0.05 µM): 0.725
- relative viability (NCI-H596; first compound 0.5 µM): 0.931

Source: the supplement of paper PMC10307832
